# Source: patent US20080166323A1, “Activators of Hexosamine Biosynthesis as Inhibitors of Injury Induced by Ischemia or Hermorrhagic Shock” (UAB RESEARCH FOUNDATION, priority 2004, published 2008)
# Tests used:
# isolated rat hearts = experiment: isolated heart model of ischemia and reperfusion; details: 5 mM, added 10 minutes prior to ischemia and in reperfusion buffer; 10 min global ischemia, 15 min reperfusion; n=3
# Protocol: To determine whether glucosamine treatment was protective in an isolated heart model of ischemia and reperfusion, isolated rat hearts (n=3) were assessed for protection against damage utilizing an ischemia/reperfusion protocol that included 10 minutes of global ischemia followed by 15 minutes of reperfusion with oxygenated buffer. In the experimental group, 5 mM glucosamine was added to the buffer 10 minutes prior to the onset of ischemia and was also included in the reperfusion buffer.
# [1] = tested on: rat model of trauma-hemorrhage and resuscitation; experiment: soft tissue trauma-hemorrhage (T-H) and resuscitation, Example 1 (glucosamine before hemorrhage and during resuscitation); format: in vivo
# Protocol: The following experiments were conducted using a model of soft tissue trauma-hemorrhage (T-H) as described in Ba, et al., Crit. Care Med (2000) 28(8):2837-2842; Chaudry, et al., Can J Physiol Pharmacol (1975) 53(5):859-865; Ma, et al., Am J Physiol Gastrointest Liver Physiol (2003) 284(1):G107-G115; and Harkema and Chaudry, Crit. Care Med (1992) 20(2):263-275. Male rats were fasted for 16 h and divided into three groups: (1) sham (trauma only); (2) T-H (trauma with subsequent hemorrhage and resuscitation); and (3) G-T-H (trauma with subsequent hemorrhage and resuscitation in the presence of glucosamine). All groups underwent a 5 cm ventral midline laparotomy to induce soft-tissue trauma and were cannulated in both femoral arteries and the right femoral vein. The T-H and G-T-H groups received an infusion of 3 mls over 30 minutes of Ringer's lactate (RL) containing, in the G-T-H group only, 10 mM glucosamine. These two groups were then bled to a mean arterial pressure of 40 mm Hg within 10 minutes and maintained at that pressure for 80 minutes. The T-H group was then infused with 1 ml RL over 10 minutes, while in the G-T-H group the infusate contained an iso-osmotic solution of 75 mM glucosamine (pH 7.4) in 50% RL. The two groups were then resuscitated with four times the maximum hemorrhage volume over a period of 60 minutes with RL (T-H) or RL containing 10 mM glucosamine (G-T-H). Sham-operated animals underwent the same surgical procedure but were neither bled nor resuscitated. Two hours post-resuscitation, a catheter was inserted into the left ventricle via the right carotid artery. Organ blood flows were determined using radioactive microspheres. Cardiac function and blood parameters were also assessed. The data for these experiments are shown in Tables 1 and 2 (values are mean ±standard error of the mean).
# perfused hearts = experiment: calcium paradox in perfused hearts (Langendorff); parameters: species or system rat; details: 5-minute pretreatment of control hearts
# Protocol: The effect of short-term hyperglycemia (2-5 days) on the calcium paradox was explored. The protocol (a 30-minute stabilization after hanging the heart on a Langendorff apparatus, a Ca^2+-free buffer for 10 min, a buffer containing 1.25 mM Ca^2+ buffer for 15 min) was initially applied to perfused hearts from control rats. When calcium was removed from the perfusate, the heart gradually ceased beating (FIG. 2A), although no protein loss from the heart was detected (FIG. 3C). […] The decrease in left ventricular […] pressure (LVDP) and an elevation in end diastolic pressure (EDP), as well as protein loss and blanching signaled the transition to a “stone heart” (Zimmerman, Cardiovasc Res (2000) 45(1):119-121) in hearts from all control animals examined.
# Azaserine (AZA), the inhibitor of GFAT and HBP flux (Marshall, et al., J Biol Chem (1991) 266(8):4706-4712), negated the effects of hyperglycemia, restoring sensitivity to the paradox in 3 of 7 hearts (FIG. 2B). […] This decreased somewhat the protection seen with hyperglycemia, but made the reversal seen with azaserine more pronounced (FIGS. 2B and 3).
# To confirm the involvement of the HBP in the protection due to hyperglycemia, a complementary series of experiments at a final Ca^2+ concentration of 1.25 mM were performed.
# An independent mechanism of increasing metabolites in the HBP is to provide the heart with free fatty acids (Hawkins, et al., J Clin Invest (1997) 99(9):2173-2182). This occurs because of the “glucose-sparing” effect, a rapid block on the entry of glucose into the glycolytic pathway because of an inhibition of phosphofructokinase. […] In addition, SKF96365 (also known as 1-[β-[3-(4-methoxyphenyl)propoxy]-4-methoxyphenethyl]-1H-imidazole, HCl; available from Calbiochem, San Diego, Calif.) as an independent means of blocking the channels responsible for CCE was utilized (Putney, Capacitative Calcium Entry (1997) Austin: Landes Biomedical). This too was at least partially effective in 4 of 6 animals (FIG. 4).
# [2] = rat, G-T-H (n = 3), 2 h after T-H, glucosamine before hemorrhage and in resuscitation, mean ± SEM
# [3] = rat, G-T-H, 2 h after T-H and resuscitation, Example 1, mean ± SEM
compound,measurement,setting,value
N[C@H]1C(O)O[C@H](CO)[C@@H](O)[C@@H]1O (stereo partly drawn) [glucosamine],protection from ischemia/reperfusion as assessed by LVDP and EDP,isolated rat hearts,significant protection
same,"Hepatic blood flow, change","[1]; G-T-H group, Example 1",improved
same,"Total peripheral resistance, change","[1]; G-T-H group, Example 1",decreased
same,+dp/dt relative to the T-H group,"[1]; G-T-H vs T-H group, Example 1",markedly improved
same,Cardiac output improvement over the T-H group,"[1]; G-T-H vs T-H group, Example 1",more than two-fold
same,oxygen consumption relative to the T-H group,"[1]; G-T-H vs T-H group, Example 1",more than doubled
same,oxygen delivery relative to the T-H group,"[1]; G-T-H vs T-H group, Example 1",more than doubled
same,−dp/dt relative to the T-H group,"[1]; G-T-H vs T-H group, Example 1",markedly improved
same,Cardiac output improvement over the sham group,"[1]; G-T-H vs sham group, Example 1",more than 50%
same,+dp/dt,[1]; [2],"14,400 ± 900 mm Hg/sec"
same,Cardiac Output,[1]; [2],40.5 ± 0.4 ml/min 100 g body wt
same,Heart Rate,[1]; [2],371 ± 15 beat/minute
same,Mean Arterial Pressure,[1]; [2],104 ± 3 mm Hg
same,Oxygen Consumption,[1]; [2],1.32 ± 0.15 ml/min 100 g body wt
same,Oxygen Delivery,[1]; [2],3.3 ± 0.1 ml/min 100 g body wt
same,Oxygen Extraction,[1]; [2],42.0 ± 5.4%
same,Stroke volume,[1]; [2],109.7 ± 5.7 μl/beat/100 g body wt
same,Total Peripheral Resistance,[1]; [2],2.58 ± 0.10 mm Hg/ml/min/100 g body wt
same,−dp/dt,[1]; [2],"8,700 ± 600 mm Hg/sec"
same,Regional Blood Flow: Brain,[1]; [3],103 ± 11 ml/min/100 g tissue
same,Regional Blood Flow: Cardiac,[1]; [3],"1,320 ± 170 ml/min/100 g tissue"
same,Regional Blood Flow: Cecum,[1]; [3],118 ± 29 ml/min/100 g tissue
same,Regional Blood Flow: Gastric,[1]; [3],78.3 ± 5.1 ml/min/100 g tissue
same,Regional Blood Flow: Hepatic Artery,[1]; [3],18.5 ± 6.0 ml/min/100 g tissue
same,Regional Blood Flow: Large Intestine,[1]; [3],101 ± 18 ml/min/100 g tissue
same,Regional Blood Flow: Lung,[1]; [3],74.2 ± 18.1 ml/min/100 g tissue
same,Regional Blood Flow: Mesenteric,[1]; [3],29.2 ± 5.0 ml/min/100 g tissue
same,Regional Blood Flow: Muscle,[1]; [3],6.45 ± 1.69 ml/min/100 g tissue
same,Regional Blood Flow: Pancreatic,[1]; [3],56 ± 4 ml/min/100 g tissue
same,Regional Blood Flow: Portal Vein,[1]; [3],187 ± 14 ml/min/100 g tissue
same,Regional Blood Flow: Renal,[1]; [3],374 ± 13 ml/min/100 g tissue
same,Regional Blood Flow: Skin,[1]; [3],53.9 ± 5.7 ml/min/100 g tissue
same,Regional Blood Flow: Small Intestine,[1]; [3],240 ± 24 ml/min/100 g tissue
same,Regional Blood Flow: Splenic,[1]; [3],46 ± 20 ml/min/100 g tissue
same,Regional Blood Flow: Thymus,[1]; [3],47.8 ± 10.5 ml/min/100 g tissue
same,Regional Blood Flow: Total Hepatic,[1]; [3],202 ± 20 ml/min/100 g tissue
same,function prior to calcium removal,perfused hearts,did not alter function
same,hearts with significant protection following calcium readdition,perfused hearts; final Ca2+ 1.25 mM,7 of 7
same,Protein loss inhibited,"perfused hearts; final Ca2+ 1.25 mM, data not shown",88%
